According to ChEMBL document CHEMBL1201862, “PubChem BioAssay data set” (2004):
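All cell lines were grown in 96-well plates and treated with compound for 48 hours. The concentration for 50% growth inhibition is given as GI50.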 Active and inactive are the calls of the source. Rule as the data show it: active = GI50 up to about 1.1 µM and inactive = higher.

How the values were obtained:
Assay in all cases: NCI-60 cell line screen, 48 h
UACC-257 = system: UACC-257
Malme-3M = system: Malme-3M
ACHN = system: ACHN
LXFL 529 = system: LXFL 529
KM12 = system: KM12
786-0 = system: 786-0
OVCAR-8 = system: OVCAR-8
IGROV-1 = system: IGROV-1
HCT-15 = system: HCT-15
A549 = system: A549
RXF 393 = system: RXF 393
SF-539 = system: SF-539
EKVX = system: EKVX
SK-MEL-5 = system: SK-MEL-5
UO-31 = system: UO-31
XF498 = system: XF498
MOLT-4 = system: MOLT-4

| Structure (SMILES) | GI50 (UACC-257) | GI50 (Malme-3M) | GI50 (ACHN) | GI50 (LXFL 529) | GI50 (KM12) | GI50 (786-0) | GI50 (OVCAR-8) | GI50 (IGROV-1) | GI50 (HCT-15) [µM] | GI50 (A549) | GI50 (RXF 393) | GI50 (SF-539) | GI50 (EKVX) | GI50 (SK-MEL-5) | GI50 (UO-31) | GI50 (XF498) | GI50 (MOLT-4) |
| --- | --- | --- | --- | --- | --- | --- | --- | --- | --- | --- | --- | --- | --- | --- | --- | --- | --- |
| CC1(C)CC2CC(CC(C)(C)C2=O)C1=O | > 100 µM (inactive) | > 100 µM (inactive) | > 100 µM (inactive) | > 100 µM (inactive) | > 100 µM (inactive) | > 100 µM (inactive) | > 100 µM (inactive) | > 100 µM (inactive) | > 100 | > 100 µM (inactive) | > 100 µM (inactive) | > 100 µM (inactive) | > 100 µM (inactive) | > 100 µM (inactive) | > 100 µM (inactive) | > 100 µM (inactive) | > 100 µM (inactive) |
| O=C1N(c2ccccc2)C(=O)C2(SC=NN2Cc2ccccc2)N1c1ccccc1 (centres undefined) | > 100 µM (inactive) | > 100 µM (inactive) | > 100 µM (inactive) | > 100 µM (inactive) | > 100 µM (inactive) | > 100 µM (inactive) | > 100 µM (inactive) | > 100 µM (inactive) | – | > 100 µM (inactive) | > 100 µM (inactive) | > 100 µM (inactive) | > 100 µM (inactive) | > 100 µM (inactive) | > 100 µM (inactive) | > 100 µM (inactive) | > 100 µM (inactive) |
| O=C(O)CSc1nnc(Cc2ccccc2)[nH]1 | > 100 µM (inactive) | > 100 µM (inactive) | > 100 µM (inactive) | > 100 µM (inactive) | > 100 µM (inactive) | > 100 µM (inactive) | > 100 µM (inactive) | > 100 µM (inactive) | > 100 | > 100 µM (inactive) | > 100 µM (inactive) | > 100 µM (inactive) | > 100 µM (inactive) | > 100 µM (inactive) | > 100 µM (inactive) | 15.7 µM (inactive) | > 100 µM (inactive) |
| CCOc1cccc2ccc[n+](CC)c12 | 57.9 µM (inactive) | > 100 µM (inactive) | > 100 µM (inactive) | 54.7 µM (inactive) | 49.7 µM (inactive) | > 100 µM (inactive) | 25.2 µM (inactive) | > 100 µM (inactive) | – | 48.6 µM (inactive) | > 100 µM (inactive) | > 100 µM (inactive) | > 100 µM (inactive) | 45.5 µM (inactive) | > 100 µM (inactive) | 42.9 µM (inactive) | > 100 µM (inactive) |
| CC1=NN(C(=O)CC(=O)Nc2ccccc2)C(=O)C1/N=N/c1ccc(S(N)(=O)=O)cc1 (centres undefined) | > 100 µM (inactive) | > 100 µM (inactive) | > 100 µM (inactive) | 81.7 µM (inactive) | > 100 µM (inactive) | 66.5 µM (inactive) | 61.5 µM (inactive) | 34.7 µM (inactive) | > 100 | > 100 µM (inactive) | 70.8 µM (inactive) | 99.8 µM (inactive) | > 100 µM (inactive) | 36.4 µM (inactive) | 57.8 µM (inactive) | 56.8 µM (inactive) | 37.5 µM (inactive) |
| BrC1=CC=C2NC=CC3=CC=NC1C32 (centres undefined) | 33.5 µM (inactive) | 27.7 µM (inactive) | 7.26 µM (inactive) | 19.5 µM (inactive) | 24.2 µM (inactive) | 8.34 µM (inactive) | 16.4 µM (inactive) | 25.6 µM (inactive) | 18.9 | – | 16 µM (inactive) | 12.6 µM (inactive) | 39.5 µM (inactive) | 20 µM (inactive) | 14.5 µM (inactive) | 22.9 µM (inactive) | 2.75 µM (inactive) |
| CNS(=O)(=O)NN(C)S(=O)(=O)c1ccc(OC)cc1 | > 100 µM (inactive) | > 100 µM (inactive) | > 100 µM (inactive) | > 100 µM (inactive) | > 100 µM (inactive) | > 100 µM (inactive) | > 100 µM (inactive) | > 100 µM (inactive) | > 100 | > 100 µM (inactive) | 31 µM (inactive) | > 100 µM (inactive) | > 100 µM (inactive) | > 100 µM (inactive) | > 100 µM (inactive) | > 100 µM (inactive) | > 100 µM (inactive) |
| CC(=O)Oc1cc2c(=O)oc3c(OC(C)=O)c(OC(C)=O)c(OC(C)=O)c4c(=O)oc(c1OC(C)=O)c2c34 | 45.5 µM (inactive) | 29.4 µM (inactive) | 48.3 µM (inactive) | > 100 µM (inactive) | > 100 µM (inactive) | 38 µM (inactive) | 56.6 µM (inactive) | > 100 µM (inactive) | > 100 | > 100 µM (inactive) | 6.18 µM (inactive) | 24.8 µM (inactive) | 74 µM (inactive) | 61.1 µM (inactive) | 97.7 µM (inactive) | 32.5 µM (inactive) | 58.7 µM (inactive) |
| CCO/C=C1\N=C(C(Cl)c2ccccc2)OC1=O (centres undefined) | > 100 µM (inactive) | > 100 µM (inactive) | > 100 µM (inactive) | > 100 µM (inactive) | > 100 µM (inactive) | > 100 µM (inactive) | > 100 µM (inactive) | > 100 µM (inactive) | > 100 | > 100 µM (inactive) | > 100 µM (inactive) | > 100 µM (inactive) | > 100 µM (inactive) | > 100 µM (inactive) | > 100 µM (inactive) | > 100 µM (inactive) | > 100 µM (inactive) |
| Nc1ccc(C(=O)NN2C(=O)C(Cl)C2c2ccccc2Cl)cc1 (centres undefined) | 13.6 µM (inactive) | 17.6 µM (inactive) | 16.4 µM (inactive) | 2.06 µM (inactive) | 12.1 µM (inactive) | 1.69 µM (inactive) | 3.24 µM (inactive) | 13.4 µM (inactive) | 3.01 | 14.3 µM (inactive) | 5.48 µM (inactive) | 7.93 µM (inactive) | 17.5 µM (inactive) | 16 µM (inactive) | 17 µM (inactive) | 17.5 µM (inactive) | 1.59 µM (inactive) |
| CN1C2C=C(c3ccccc3)CC1CC2 (centres undefined) | > 100 µM (inactive) | > 100 µM (inactive) | > 100 µM (inactive) | > 100 µM (inactive) | > 100 µM (inactive) | > 100 µM (inactive) | > 100 µM (inactive) | > 100 µM (inactive) | > 100 | > 100 µM (inactive) | > 100 µM (inactive) | > 100 µM (inactive) | > 100 µM (inactive) | > 100 µM (inactive) | > 100 µM (inactive) | > 100 µM (inactive) | > 100 µM (inactive) |
| CC#C[I+]c1ccccc1 | 20.9 µM (inactive) | 18.9 µM (inactive) | 15.7 µM (inactive) | 13.4 µM (inactive) | 16.5 µM (inactive) | 14.6 µM (inactive) | 15.1 µM (inactive) | 37.4 µM (inactive) | – | 63.8 µM (inactive) | 19.1 µM (inactive) | 18.2 µM (inactive) | 16.2 µM (inactive) | 23.4 µM (inactive) | 30.3 µM (inactive) | 16.7 µM (inactive) | 12.1 µM (inactive) |
| CC1(C)OC(=S)N(c2ccccc2)C12C=Cc1cc3ccccc3nc1S2 (centres undefined) | > 100 µM (inactive) | > 100 µM (inactive) | > 100 µM (inactive) | 44 µM (inactive) | > 100 µM (inactive) | > 100 µM (inactive) | > 100 µM (inactive) | > 100 µM (inactive) | > 100 | > 100 µM (inactive) | 55.6 µM (inactive) | > 100 µM (inactive) | > 100 µM (inactive) | 56.9 µM (inactive) | 73.5 µM (inactive) | > 100 µM (inactive) | 26.9 µM (inactive) |
| COc1cc2c(oc(=O)c3c4occc4cc(OC)c23)c2cccc(O)c12 | > 100 µM (inactive) | > 100 µM (inactive) | > 100 µM (inactive) | > 100 µM (inactive) | > 100 µM (inactive) | > 100 µM (inactive) | > 100 µM (inactive) | > 100 µM (inactive) | > 100 | > 100 µM (inactive) | > 100 µM (inactive) | > 100 µM (inactive) | > 100 µM (inactive) | > 100 µM (inactive) | > 100 µM (inactive) | > 100 µM (inactive) | > 100 µM (inactive) |
| COC(=O)C1=C(O)c2cc(OC)c(OC)cc2C(c2ccc(OC)c(OC)c2)C1 (centres undefined) | > 100 µM (inactive) | > 100 µM (inactive) | 77.3 µM (inactive) | 43.3 µM (inactive) | 76.9 µM (inactive) | > 100 µM (inactive) | 93.1 µM (inactive) | > 100 µM (inactive) | 78.7 | > 100 µM (inactive) | > 100 µM (inactive) | > 100 µM (inactive) | > 100 µM (inactive) | > 100 µM (inactive) | > 100 µM (inactive) | 94.6 µM (inactive) | 88.5 µM (inactive) |
| CC1(C)C(=NN=C(N)N)C(C)(C)C1=NN=C(N)N | > 100 µM (inactive) | > 100 µM (inactive) | > 100 µM (inactive) | > 100 µM (inactive) | > 100 µM (inactive) | > 100 µM (inactive) | > 100 µM (inactive) | > 100 µM (inactive) | > 100 | > 100 µM (inactive) | > 100 µM (inactive) | > 100 µM (inactive) | – | > 100 µM (inactive) | > 100 µM (inactive) | > 100 µM (inactive) | > 100 µM (inactive) |
| CC#C[P+](c1ccccc1)(c1ccccc1)c1ccccc1 | 2.76 µM (inactive) | 10.4 µM (inactive) | 3.99 µM (inactive) | 1.32 µM (inactive) | 2.88 µM (inactive) | 1.6 µM (inactive) | 0.962 µM (active) | 6.95 µM (inactive) | 2.66 | 7.91 µM (inactive) | 5.25 µM (inactive) | 2.25 µM (inactive) | 4.83 µM (inactive) | 2.2 µM (inactive) | 7.41 µM (inactive) | 2.39 µM (inactive) | 0.953 µM (active) |
